Reference: patent US20150051273A1, “USE OF DELPHINIDIN AGAINST STAPHYLOCOCCUS AUREUS” (Sapiotec GmbH, priority 2012, published 2015)
Entries after “also recorded” stand apart in the source; their conditions may differ.

Tests used:
[1] = Solubility of delphinidin chloride in aqueous cyclodextrin solutions; assay type: physicochemical; conditions: pure water, cyclodextrin concentration 0; excess delphinidin chloride, 30° C., 20 h, dark, 0.22 μm filter
Description: In this example, the complexing of delphinidin by different cyclodextrins and the solubility of the complex in aqueous solution are investigated.
Neutral aqueous solutions were prepared, containing 10 wt % of the respective cyclodextrin.
5 ml each of the aqueous cyclodextrin solutions and of pure water were introduced into glass flasks. Then an excess of delphinidin chloride was added.
The suspensions were stirred in the dark at 30° C. for 20 h. This was followed by filtration through a membrane filter with a 0.22 μm pore size.

[2] = Stability tests in aqueous solution (delphinidin content by HPLC); assay type: physicochemical; conditions: 0.9% NaCl solution, 37° C., dark, start 1.584 mg/ml (complex) or 0.0216 mg/ml (uncomplexed)
Description: The delphinidin chloride content of the delphinidin-containing solutions was determined using a reversed-phase HPLC technique similar to that already described above. The following reagents were employed here:
The solutions were prepared at room temperature and then stored in closed vials in the dark at 37° C.
The delphinidin content was determined after 1, 2, 3, and 4 h. The table below reports the content found, as a percentage of the abovementioned starting concentration.

[3] = test system: Pseudomonas aeruginosa ATCC9027; assay: Bacterial growth, static model (visual evaluation, vitality test); assay type: cell-based; conditions: P. aeruginosa; RPMI-1640, 37° C., 48 hours
From the text: (§1) The strains selected were as follows: • Pseudomonas aeruginosa ATCC9027, biofilm-positive clinical isolate from an outer ear infection (reference strain);
(§2) Investigating the effect of delphinidin on the bacterial growth and the bacterial formation of biofilm took place by means of • a) visual evaluation of bacterial growth (static model), • b) vitality test (scrape on blood agar plates) • c) analysis of the biofilm in a static model by means of the crystal violet assay as described above in section 1.
(§3) The control used was sterile RPMI-1640. Then delphinidin in solution in RPMI-1640 was added, from a dilution series produced beforehand, and the cell culture dish was incubated at 37° C. for 48 hours, the visual outcome thereof being shown in FIG. 2. The color change from (phenol) red to yellow correlates with the extent of the bacterial growth.
(§4) Scrapes of the bacteria from the culture dish are shown in FIG. 3 (P. aeruginosa ATCC9027), 4 (K. pneumoniae ATCC700603), 5 (MRSA2318), 6 (MRSA2855) and 7 (MSSA1155). “ST 26.1.11” and “ST 28.1.11” in the case of the scrapes on the agar plates refers to the respective scraping date of the duplicated experiments.

[4] = test system: Klebsiella pneumoniae ATCC700603; assay: as above; assay type: cell-based; conditions: K. pneumoniae; RPMI-1640, 37° C., 48 hours
From the text: (§5) Klebsiella pneumoniae ATCC700603 biofilm-positive clinical isolate from urine from an ESBL+(Extended Spectrum Beta-Lactamase) hospital patient (reference strain);
as §2, §3, §4

[5] = test system: Staphylococcus aureus MRSA2318, MRSA2855, MSSA1155; assay: as above; assay type: cell-based; conditions: S. aureus (both MSSA and MRSA); RPMI-1640, 37° C., 48 hours
From the text: (§6) Staphylococcus aureus MRSA2318 biofilm-positive clinical isolate from tracheal secretion of 22.04.2009 (Würzburg University Hospital, neurosurgical clinic and polyclinic I, intensive therapy unit); • Staphylococcus aureus MRSA2855 biofilm-positive clinical isolate from blood culture of 22.04.2009 (Würzburg University Hospital, medical clinic and polyclinic I, ITU); • Staphylococcus aureus MSSA1155 biofilm-positive clinical isolate from 27.04.2004 from abdominal cavity scrape (Würzburg University clinic, urology, unit B).
as §2, §3
Scrapes of the bacteria from the culture dish are shown in FIG. 3 (P. aeruginosa ATCC9027), 4 (K. pneumoniae ATCC700603), 5 (MRSA2318), 6 (MRSA2855) and 7 (MSSA1155). […]

[6] = test system: Pseudomonas aeruginosa ATCC9027; assay: Biofilm formation, static model, crystal violet assay; assay type: cell-based; conditions: P. aeruginosa, RPMI-1640, 37° C., 48 hours
Description: as §1
(§7) The growth and the analysis of the biofilm were determined in a static model by means of the crystal violet assay according to basic protocol 1 in Current Protocols in Microbiology 1B.1.2-1B.1.4 “MICROTITER PLATE BIOFILM ASSAY” [published online August 2011 in Wiley Online Library (wileyonlinelibrary.com) DOI: 10.1002/9780471729259. mc01b01s22].
as §2, with “1. […]” for “1.”
(§8) With the same experimental setup, the biofilm was analyzed by means of the crystal violet test as described above in section 1, the outcome thereof, after 48 hours of incubation and the crystal violet test, is shown overall in FIG. 8, and in FIGS. 9-13 in each case after measurement of the optical density, processed graphically for the respective delphinidin concentrations in the case of the individual bacterial strains (FIG. 9: P. aeruginosa ATCC9027, FIG. 10: K. pneumoniae ATCC700603, FIG. 11: MRSA2318, FIG. 12: MRSA2855, FIG. 13: MSSA1155).

[7] = test system: Klebsiella pneumoniae ATCC700603; assay: as above; assay type: cell-based; conditions: K. pneumoniae, RPMI-1640, 37° C., 48 hours
Description: as §5
The growth and the analysis of the biofilm were determined in a static model by means of the crystal violet assay according to basic protocol 1 in Current Protocols in Microbiology 1B.1.2-1B.1.4 “MICROTITER PLATE BIOFILM ASSAY” [published online August 2011 in Wiley Online Library (wileyonlinelibrary.com) DOI: 10.1002/9780471729259. mc01b01s22]. […]
as §8

[8] = test system: Staphylococcus aureus MRSA2318, MRSA2855, MSSA1155; assay: as above; assay type: cell-based; conditions: S. aureus (both MSSA and MRSA), RPMI-1640, 37° C., 48 hours
From the text: as §6, §7, §2
The control used was sterile RPMI-1640. […]

Row | Structure (SMILES) | Delphinidin chloride (solubility achievable) [1] | Delphinidin content as a percentage of the starting concentration ([2]; 0 h) | Delphinidin content as a percentage of the starting concentration ([2]; 1 h) | Delphinidin content as a percentage of the starting concentration ([2]; 2 h) | Delphinidin content as a percentage of the starting concentration ([2]; 3 h) | Delphinidin content as a percentage of the starting concentration ([2]; 4 h) | Effect on growth [3] | Effect on growth [4] | Effect on growth [5] | Effect on formation of biofilm [6] | Effect on formation of biofilm [7] | Effect on formation of biofilm [8]
1 | Oc1cc(O)c2cc(O)c(-c3cc(O)c(O)c(O)c3)[o+]c2c1.[Cl-] [Delphinidin chloride, delphinidin chloride] | 70 µg/mL | – | – | – | – | – | – | – | – | – | – | –
2 | Oc1cc(O)c2cc(O)c(-c3cc(O)c(O)c(O)c3)[o+]c2c1 [Delphinidin] | – | 100% | 8.3% | 6.5% | 5.6% | 5.1% | no inhibiting effect | no inhibiting effect | inhibiting effect | no inhibiting effect | no inhibiting effect; also recorded: appears still to be being stimulated | inhibiting effect
